{"source": "patent US12569477B2", "about": "“Compositions for synergistically enhancing mitochondrial function” (MITOCHOLINE LTD, priority 2017, dated 2026)", "key": {"whole-brain ATP levels": {"test_system": "whole-brain ATP levels", "conditions": "for ATP, % (ATP levels in the brain at 15th min after ischemia onset, in percent to baseline): male rats, 10 mg/kg for 7 days, global ischemia, mean±SEM, baseline 100%, saline 35.3 ± 3.0", "method": "Then global ischemia was induced in rats by cardiac arrest under anesthesia and whole-brain ATP levels were measured by 31P NMR in vivo for 15 min. Results are presented in Table 3 as mean±SEM ATP levels in the brain at 15th min after ischemia onset, in percent to baseline (accepted for 100%)."}, "primary myotubes [1]": {"test_system": "primary myotubes", "assay": "Mitochondrial membrane potential (TMRM) in primary myotubes", "type": "cell-based, rat", "conditions": "DiSU 50 μM, NAM 20 μM, or both (2:1:0.4); n=67 myotubes", "procedure": "(§1) Primary Skeletal Muscle Cell culture. Primary myotube cells were obtained from postnatal day 0-2 (P0-P2) rat pups which were sacrificed by decapitation. Briefly, the rats were immersed in 70% ethanol and the hind-limbs removed under a dissection microscope, in dissection solution containing Dulbecco's Phosphate Buffered Saline (PBS) with penicillin streptomycin (5000 units/ml) and Amphotericin B (2.5 mg/L). The tissues were then digested in 0.2% collagenase solution at 37° C. for 30-40 minutes.\nThe reaction was stopped by adding 2-3 ml fetal bovine serum (FBS), and the tissue suspension was centrifuged at 2010 rpm (700 g) for 10 minutes. The cell pellet was resuspended in pre-warmed growth medium, Dulbecco's modified Eagle's medium (DMEM), containing 20% FBS, 100 i.u./ml penicillin and 200 i.u./ml streptomycin], and plated on 22 mm coverslips that were pre-coated with 0.2% gelatin for 1 hour at 37° C. […]\nTetramethyl rhodamine methyl ester (TMRM) was used to study the changes of the mitochondrial membrane potential (Δψm). […] TMRM fluorescence was excited at 543 nm (HeNe laser), and emission was measured at >560 nm. […] Therefore, the changes in potential are reflected by changes in fluorescence intensity within the mitochondria which is measured after thresholding out the background signal from the cytosol to give a mean value per pixel within the mitochondrial population of a cell. […]"}, "primary myotubes [2]": {"test_system": "primary myotubes", "assay": "Autophagy/mitophagy: co-localization of mitochondria and lysosomes in primary myotubes", "type": "cell-based, rat", "conditions": "50 μM DiSU+20 μM NAM or single components in corresponding molar amounts", "text": "The upper panels show confocal images of cells loaded with two dyes MitoTracker Green (labeling mitochondria) and LysoTracker Red (labeling lysosomes); the lower panel: quotative evaluation of co-localization of mitochondria and lysosomes in cells. […] Values are presented as mean±SD. **P<0.001. Independent experiments (n) are indicated as dots in the scatter plot."}, "[3]": {"test_system": "primary neurons and astrocytes", "assay": "Mitochondrial NADH autofluorescence in primary neurons and astrocytes", "type": "cell-based, mouse", "conditions": "for NADH autofluorescence, % of control: after 20 min of incubation; for NADH autofluorescence, % of control / Initial change of mitochondrial NADH level on application: DiSU 50 μM, NAM 20 μM, sodium succinate 50 μM", "procedure": "Mixed cultures of cortical neurons and glial cells were prepared as described, from mouse pups 1-3 days postpartum. Neurons were easily distinguishable from glia: they appeared phase bright, had smooth rounded somata and distinct processes, and positioned just above the focal plane of the glial layer. Cells were used at 14-21 DIV. Experiments were conducted in HBSS solution at the 37° C.\nTo estimate the mitochondrial pool of NADH, maximal activation of mitochondrial respiration is induced by uncoupler FCCP (mitochondrial NADH is taken 0) followed by inhibition of respiration by NaCN (NADH is maximal due to inhibition of consumption). This set up provides evaluation of several characteristics: the rate of NADH production in TCA cycle (recovery of the NADH signal after NaCN), total mitochondrial pool and redox index."}, "[4]": {"test_system": "cortical neurons and glial cells", "assay": "ATP levels in mixed primary cultures of cortical neurons and glial cells (AT1.03 probe, confocal microscopy)", "conditions": "same treatments as ATP, control 0", "procedure": "Mixed primary cultures of cortical neurons and glial cells were prepared from mouse pups 1-3 days postpartum, as described by Vaarmann A. et al., 2010 (Cell Calcium 2010, 48(2-3):176-82). For measurements of ATP, the cells at 14-21 DIV were transfected for 24 h with the ATP sensing probe AT1.03 (as described in Imamura H et al., PNAS 2009, 106(37):15651-15656) using Lipofectamine 2000 according to the manufacturer's instructions. […] Then, ATP levels in cells were measured using confocal microscopy. […] All data presented were obtained from at least 5 coverslips and 2-3 different cell preparations.\nMean of ATP levels in non-treated cells (control) was accepted for 100%. Effects of the treatments on ATP levels in cells (ΔATP) were calculated by formula: ΔATP=ATPtreat−ATPcontrol, wherein ATPtreat is ATP level in treated cells and ATPcontrol is ATP levels in control cells."}, "primary myotubes [5]": {"test_system": "primary myotubes", "assay": "Mitochondrial NADH redox index and NADH pool in myotube cultures", "type": "cell-based, rat", "conditions": "blend 1: 100 μM DiSU+40 μM NAM; blend 2: 50 μM DiSU+20 μM NAM; choline (100, succinate (50 μM), NAM (50 μM)); FIG. 1B", "procedure": "as §1\nThe reaction was stopped by adding 2-3 ml fetal bovine serum (FBS), and the tissue suspension was centrifuged at 2010 rpm (700 g) for 10 minutes. The cell pellet was resuspended in pre-warmed growth medium, Dulbecco's modified Eagle's medium (DMEM), containing 20% FBS, 100 i.u./ml penicillin and 200 i.u./ml streptomycin], and plated on 22 mm coverslips that were pre-coated with 0.2% gelatin for 1 hour at 37° C. Cells were then cultured in a humidified CO2 incubator (5% CO2 in air) at 37° C. After 2 or 3 days, the medium was changed to a low-serum medium (DMEM containing 10% FBS without antibiotics), and was subsequently renewed every 3 or 4 days. All experiments were performed in vitro between days 2 and 11 in culture when spindle-shaped myoblasts had proliferated and aligned themselves for fusion (˜70% confluency)."}}, "data": [{"compound": "C[N+](C)(C)CCO.[Cl-]", "note": "[Choline chloride, choline chloride]", "values": [{"measurement": "ATP, % (ATP levels in the brain at 15th min after ischemia onset, in percent to baseline)", "setting": "whole-brain ATP levels", "value": "36.8 ± 5.0", "unit": "%"}]}, {"compound": "NC(=O)c1cccnc1", "note": "[NAM, nicotinamide]", "values": [{"measurement": "Increase in TMRM fluorescence (mitochondrial membrane potential) compared to control", "setting": "primary myotubes [1]", "value": "increase"}, {"measurement": "Autophagy (co-localization of mitochondria and lysosomes)", "setting": "primary myotubes [2]", "value": "not"}, {"measurement": "Mitochondrial NADH pool, % of control", "setting": "[3]; NAM 20 μM alone, short term (15-20 min)", "value": "116±8 % of control"}]}, {"compound": "O=C([O-])CCC(=O)[O-].[K+].[K+]", "note": "[Dipotassium succinate, dipotassium succinate]", "values": [{"measurement": "ATP, % (ATP levels in the brain at 15th min after ischemia onset, in percent to baseline)", "setting": "whole-brain ATP levels", "value": "40.9 ± 9.0", "unit": "%"}]}, {"compound": "O=C(O)c1cccnc1", "note": "[Nicotinic acid, nicotinic acid]", "values": [{"measurement": "ΔATP, % (ATPtreat−ATPcontrol)", "setting": "[4]", "value": "+1%"}]}, {"compound": "choline succinate salt (2:1) [DiSU]", "values": [{"measurement": "ATP, % (ATP levels in the brain at 15th min after ischemia onset, in percent to baseline)", "setting": "whole-brain ATP levels", "value": "55.5 ± 4.8", "unit": "%"}, {"measurement": "ATP levels in the brain under normoxia", "setting": "whole-brain ATP levels; rats, normoxia", "value": "did not affect"}, {"measurement": "Increase in TMRM fluorescence (mitochondrial membrane potential) compared to control", "setting": "primary myotubes [1]", "value": "increase"}, {"measurement": "Autophagy (co-localization of mitochondria and lysosomes)", "setting": "primary myotubes [2]", "value": "significantly increase"}, {"measurement": "NADH autofluorescence, % of control", "setting": "[3]", "value": "123±6 % of control"}, {"measurement": "Initial change of mitochondrial NADH level on application", "setting": "[3]", "value": "only slight initial decrease"}]}, {"compound": "O=C([O-])CCC(=O)[O-].[Na+].[Na+]", "note": "[Sodium succinate, sodium succinate]", "values": [{"measurement": "ATP, % (ATP levels in the brain at 15th min after ischemia onset, in percent to baseline)", "setting": "whole-brain ATP levels", "value": "34.3 ± 2.4", "unit": "%"}, {"measurement": "Autophagy (co-localization of mitochondria and lysosomes)", "setting": "primary myotubes [2]", "value": "not"}, {"measurement": "NADH autofluorescence, % of control", "setting": "[3]", "value": "not detected a noticeable increase"}, {"measurement": "Initial change of mitochondrial NADH level on application", "setting": "[3]", "value": "fast and significant decrease"}, {"measurement": "NADH redox index", "setting": "primary myotubes [5]", "value": "did not induce significant changes"}]}]}
